Consider 20 compounds from US11905294B2, “Imidazo[1,5-a]pyrazine derivatives as PI3Kδ inhibitors” (BEIGENE, LTD., priority 2017, dated 2024).

Holding throughout (format): biochemical
The target in one test is PI3K (p110α/p85α) (Homo sapiens, UniProt P42336). As to the kind of experiment: PI3Kα assay (ADP-Glo Kinase Assay). To be noted: recombinant enzyme; IC50 (nM) or max inhibition (%) at 0.5 μM.
The next test concerns the target PI3K (p110β/p85α) (Homo sapiens, UniProt P42338). The test can be described thus: PI3Kβ assay (ADP-Glo Kinase Assay). To be noted: read-out: Enzyme activity IC50 PI3Kβ.
Another test has as its target PI3K (p110γ) (Homo sapiens, UniProt P48736). The test can be described thus: PI3Kγ assay (ADP-Glo Kinase Assay). To be noted: recombinant enzyme; IC50 (nM) or max inhibition (%) at 0.5 μM.
A further test addresses PI3K (p110δ/p85α) (Homo sapiens, UniProt O00329). The test can be described thus: PI3Kδ assay (ADP-Glo Kinase Assay). The settings on record: recombinant enzyme; IC50 (nM) or max inhibition (%) at 0.5 μM. The procedure:
Compounds disclosed herein were tested for inhibition of PI3Kδ kinase activity using commercial ADP-Glo™ Kinase Assay (Promega Corporation) and following the manufacture's instruction. Briefly, recombinant PI3K (p110δ/p85α) enzyme, lipid kinase substrate and a serial dilution of compounds disclosed herein were incubated for 0.5 hr at room temperature. ATP was added to initiate the kinase reaction. After incubation for 1 hr at room temperature, ADP-Glo™ reagent was added to terminate the kinase reaction and deplete the remaining ATP. After incubation for 1 hr at room temperature, kinase detection reagent was added to simultaneously convert ADP to ATP and allow the newly synthesized ATP to be measured using a luciferase/luciferin reaction. After incubation for 0.5 hr at room temperature, the luminescence generated was measured on a PHERAstar FS plate reader (BMG LABTECH). The residual enzyme activity in presence of increasing concentrations of compounds was calculated based on the luminescence. The IC50 for each compound was derived from fitting the data to the four-parameter logistic equation by Graphpad Prism software.

pIC50: −log10 of the molar value.

Sequence of PI3K (p110γ) (P48736 whole entry): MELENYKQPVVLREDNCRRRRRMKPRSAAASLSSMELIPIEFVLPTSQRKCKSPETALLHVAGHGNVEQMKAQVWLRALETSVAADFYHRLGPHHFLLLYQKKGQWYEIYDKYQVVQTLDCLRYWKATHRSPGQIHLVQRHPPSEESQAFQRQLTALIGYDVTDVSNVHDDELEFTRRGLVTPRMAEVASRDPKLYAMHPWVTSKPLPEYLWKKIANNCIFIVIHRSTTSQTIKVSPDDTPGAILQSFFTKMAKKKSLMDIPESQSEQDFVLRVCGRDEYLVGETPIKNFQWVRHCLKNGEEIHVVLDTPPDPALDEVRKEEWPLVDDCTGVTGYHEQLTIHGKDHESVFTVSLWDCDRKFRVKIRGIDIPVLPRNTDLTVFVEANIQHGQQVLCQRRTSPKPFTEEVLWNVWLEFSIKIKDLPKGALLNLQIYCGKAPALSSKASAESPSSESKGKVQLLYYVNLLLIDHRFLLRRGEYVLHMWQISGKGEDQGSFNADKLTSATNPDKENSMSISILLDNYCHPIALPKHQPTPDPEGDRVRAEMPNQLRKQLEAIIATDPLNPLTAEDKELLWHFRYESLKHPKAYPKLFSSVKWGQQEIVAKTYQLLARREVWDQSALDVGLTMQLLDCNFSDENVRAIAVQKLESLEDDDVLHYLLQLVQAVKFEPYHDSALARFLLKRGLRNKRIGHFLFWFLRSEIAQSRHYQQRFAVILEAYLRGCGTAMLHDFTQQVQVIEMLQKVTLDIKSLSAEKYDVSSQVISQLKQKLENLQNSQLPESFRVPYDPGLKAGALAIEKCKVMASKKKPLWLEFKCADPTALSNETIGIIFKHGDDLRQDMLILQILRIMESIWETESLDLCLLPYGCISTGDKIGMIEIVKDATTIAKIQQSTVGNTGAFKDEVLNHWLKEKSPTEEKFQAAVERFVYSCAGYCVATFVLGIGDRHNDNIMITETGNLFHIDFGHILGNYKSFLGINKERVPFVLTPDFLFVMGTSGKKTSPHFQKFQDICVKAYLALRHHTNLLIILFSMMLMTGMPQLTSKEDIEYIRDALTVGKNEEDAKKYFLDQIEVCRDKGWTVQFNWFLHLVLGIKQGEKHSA
Sequence of PI3K (p110α/p85α) (P42336 whole entry): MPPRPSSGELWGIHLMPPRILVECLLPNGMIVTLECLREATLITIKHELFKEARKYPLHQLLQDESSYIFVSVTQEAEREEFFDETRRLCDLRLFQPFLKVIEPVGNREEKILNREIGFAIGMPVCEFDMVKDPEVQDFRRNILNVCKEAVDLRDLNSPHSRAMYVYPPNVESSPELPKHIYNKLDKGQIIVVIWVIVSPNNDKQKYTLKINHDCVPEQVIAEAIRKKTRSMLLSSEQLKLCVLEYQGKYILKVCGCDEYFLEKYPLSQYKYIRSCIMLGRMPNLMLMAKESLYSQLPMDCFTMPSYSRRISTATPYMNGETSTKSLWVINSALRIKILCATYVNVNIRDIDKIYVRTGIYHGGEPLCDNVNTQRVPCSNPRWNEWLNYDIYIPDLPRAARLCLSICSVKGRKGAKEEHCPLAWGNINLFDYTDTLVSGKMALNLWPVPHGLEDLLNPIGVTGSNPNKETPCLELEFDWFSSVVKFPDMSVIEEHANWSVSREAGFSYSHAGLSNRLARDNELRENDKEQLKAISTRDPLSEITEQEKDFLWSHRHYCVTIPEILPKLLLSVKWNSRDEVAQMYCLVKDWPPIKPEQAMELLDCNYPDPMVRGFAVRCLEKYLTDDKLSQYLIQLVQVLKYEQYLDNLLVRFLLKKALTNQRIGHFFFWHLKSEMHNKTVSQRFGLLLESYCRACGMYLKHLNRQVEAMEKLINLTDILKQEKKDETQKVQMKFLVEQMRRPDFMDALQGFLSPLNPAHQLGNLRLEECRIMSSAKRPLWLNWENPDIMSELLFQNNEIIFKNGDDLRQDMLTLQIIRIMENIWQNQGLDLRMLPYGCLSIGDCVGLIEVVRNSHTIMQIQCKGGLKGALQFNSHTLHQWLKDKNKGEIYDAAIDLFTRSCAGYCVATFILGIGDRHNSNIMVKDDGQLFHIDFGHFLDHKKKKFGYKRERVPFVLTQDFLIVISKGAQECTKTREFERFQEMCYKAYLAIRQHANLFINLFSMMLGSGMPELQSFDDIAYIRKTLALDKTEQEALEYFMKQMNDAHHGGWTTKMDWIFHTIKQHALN
Sequence of PI3K (p110α/p85α) (P27986 whole entry partner): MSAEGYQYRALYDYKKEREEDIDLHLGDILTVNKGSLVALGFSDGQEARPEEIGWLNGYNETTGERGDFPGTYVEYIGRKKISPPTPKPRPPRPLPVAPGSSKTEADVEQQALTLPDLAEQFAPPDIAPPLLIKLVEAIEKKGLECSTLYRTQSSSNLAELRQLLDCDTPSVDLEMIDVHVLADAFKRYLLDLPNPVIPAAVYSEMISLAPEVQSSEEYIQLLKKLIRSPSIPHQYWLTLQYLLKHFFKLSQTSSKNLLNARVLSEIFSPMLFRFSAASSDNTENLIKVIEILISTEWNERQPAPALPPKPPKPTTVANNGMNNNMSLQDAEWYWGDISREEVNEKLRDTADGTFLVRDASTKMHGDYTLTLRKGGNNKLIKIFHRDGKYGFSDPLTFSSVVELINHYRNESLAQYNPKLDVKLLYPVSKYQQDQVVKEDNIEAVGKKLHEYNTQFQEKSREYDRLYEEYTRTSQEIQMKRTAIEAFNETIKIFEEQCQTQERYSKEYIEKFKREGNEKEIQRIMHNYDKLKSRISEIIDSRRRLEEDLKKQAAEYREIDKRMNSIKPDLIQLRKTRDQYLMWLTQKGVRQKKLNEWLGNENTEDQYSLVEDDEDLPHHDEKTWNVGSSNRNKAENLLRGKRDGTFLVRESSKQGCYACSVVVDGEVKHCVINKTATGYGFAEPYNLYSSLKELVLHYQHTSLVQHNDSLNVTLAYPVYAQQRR
Sequence of PI3K (p110β/p85α) (P42338 whole entry): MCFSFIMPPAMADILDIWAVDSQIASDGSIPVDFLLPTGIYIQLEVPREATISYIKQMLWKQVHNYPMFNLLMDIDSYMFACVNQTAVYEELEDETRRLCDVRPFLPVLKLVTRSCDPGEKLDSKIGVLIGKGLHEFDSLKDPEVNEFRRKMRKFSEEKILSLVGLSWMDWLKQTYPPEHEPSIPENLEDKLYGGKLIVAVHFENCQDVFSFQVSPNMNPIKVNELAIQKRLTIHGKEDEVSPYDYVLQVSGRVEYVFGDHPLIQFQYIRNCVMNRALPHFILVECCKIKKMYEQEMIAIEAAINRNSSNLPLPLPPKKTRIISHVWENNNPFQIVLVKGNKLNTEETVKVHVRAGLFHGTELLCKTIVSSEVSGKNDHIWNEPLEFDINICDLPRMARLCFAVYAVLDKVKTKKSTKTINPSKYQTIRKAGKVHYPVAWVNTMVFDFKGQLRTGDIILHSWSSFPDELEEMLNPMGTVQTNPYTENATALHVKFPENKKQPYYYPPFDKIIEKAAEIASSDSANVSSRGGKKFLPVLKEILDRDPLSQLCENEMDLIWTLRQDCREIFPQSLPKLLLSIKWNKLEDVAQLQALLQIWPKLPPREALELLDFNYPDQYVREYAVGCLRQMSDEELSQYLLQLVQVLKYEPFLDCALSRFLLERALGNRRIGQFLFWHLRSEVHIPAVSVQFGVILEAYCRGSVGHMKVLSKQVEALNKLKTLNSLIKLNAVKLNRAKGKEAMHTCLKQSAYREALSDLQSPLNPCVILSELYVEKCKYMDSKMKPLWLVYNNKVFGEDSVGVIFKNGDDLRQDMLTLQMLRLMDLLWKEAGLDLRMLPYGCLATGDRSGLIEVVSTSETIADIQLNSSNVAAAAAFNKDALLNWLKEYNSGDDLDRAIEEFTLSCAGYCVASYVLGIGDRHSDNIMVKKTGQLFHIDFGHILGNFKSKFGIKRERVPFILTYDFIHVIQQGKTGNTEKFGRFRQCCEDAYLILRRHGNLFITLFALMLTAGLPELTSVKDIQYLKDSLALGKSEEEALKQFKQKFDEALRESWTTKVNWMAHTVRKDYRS
Sequence of PI3K (p110β/p85α) (P27986 whole entry partner): as the sequence (P27986 whole entry partner) above
Sequence of PI3K (p110δ/p85α) (O00329 whole entry): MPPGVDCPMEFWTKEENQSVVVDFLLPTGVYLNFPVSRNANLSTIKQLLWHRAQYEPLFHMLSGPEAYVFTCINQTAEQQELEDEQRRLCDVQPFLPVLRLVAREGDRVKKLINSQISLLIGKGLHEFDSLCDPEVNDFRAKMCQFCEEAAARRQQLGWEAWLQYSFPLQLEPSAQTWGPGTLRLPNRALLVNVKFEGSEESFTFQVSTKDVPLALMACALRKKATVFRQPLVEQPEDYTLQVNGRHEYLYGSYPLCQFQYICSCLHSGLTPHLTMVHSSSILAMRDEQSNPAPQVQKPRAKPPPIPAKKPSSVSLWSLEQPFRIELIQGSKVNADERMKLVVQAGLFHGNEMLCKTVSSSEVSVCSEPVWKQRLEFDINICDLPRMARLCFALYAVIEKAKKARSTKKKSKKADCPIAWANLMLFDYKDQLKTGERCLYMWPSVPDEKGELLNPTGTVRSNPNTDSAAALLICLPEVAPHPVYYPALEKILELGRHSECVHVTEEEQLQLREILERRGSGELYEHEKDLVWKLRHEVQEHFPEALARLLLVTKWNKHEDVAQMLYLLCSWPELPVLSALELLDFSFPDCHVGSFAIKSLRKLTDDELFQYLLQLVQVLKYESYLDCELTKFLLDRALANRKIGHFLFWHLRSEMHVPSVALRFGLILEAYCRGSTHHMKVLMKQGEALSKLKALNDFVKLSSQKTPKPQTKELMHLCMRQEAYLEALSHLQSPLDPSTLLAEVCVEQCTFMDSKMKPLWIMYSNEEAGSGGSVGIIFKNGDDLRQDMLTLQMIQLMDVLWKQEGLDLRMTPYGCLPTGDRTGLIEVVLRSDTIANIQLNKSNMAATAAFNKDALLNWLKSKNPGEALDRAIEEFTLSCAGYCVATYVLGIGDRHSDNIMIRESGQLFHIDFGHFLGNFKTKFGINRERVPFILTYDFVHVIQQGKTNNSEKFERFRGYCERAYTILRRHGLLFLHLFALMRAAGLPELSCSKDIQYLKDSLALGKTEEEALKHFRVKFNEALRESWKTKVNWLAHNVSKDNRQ
Sequence of PI3K (p110δ/p85α) (P27986 whole entry partner): as the sequence (P27986 whole entry partner) above

`Cc1nc(C(C)c2cc(Cl)c(F)c(C(=O)N3CC(O)C3)c2OC(C)C)n2ccnc(N)c12` (centres unmarked) [Compound 3, (3-(1-(8-amino-1-methylimidazo[1,5-a]pyrazin-3-yl)ethyl)-5-chloro-6-fluoro-2-isopropoxyphenyl)(3-hydroxyazetidin-1-yl)methanone]: the IC50 at PI3K (p110α/p85α) was 49000 nM; at PI3K (p110γ), 19000 nM; at PI3K (p110δ/p85α), 6.3 nM. Further, the pIC50 at PI3K (p110β/p85α) is 4.47.

In the case of `Cc1nc(C(C)c2cc(Cl)c(F)c(C(=O)N3CCOCC3)c2OC(C)C)n2ccnc(N)c12` (centres unmarked) [Compound 4, (3-(1-(8-amino-1-methylimidazo[1,5-a]pyrazin-3-yl)ethyl)-5-chloro-6-fluoro-2-isopropoxyphenyl)(morpholino)methanone], the results for the IC50 on PI3K (p110α/p85α), on PI3K (p110γ) and on PI3K (p110δ/p85α) were 25000 nM, 3100 nM and 1.9 nM, respectively. Moreover, the pIC50 at PI3K (p110β/p85α) was 4.62.

Regarding `Cc1nc(C(C)c2cc(Cl)c(F)c(C(=O)N3CC[C@H](O)C3)c2OC(C)C)n2ccnc(N)c12` (stereo partly drawn) [Compound 6, (3-(1-(8-amino-1-methylimidazo[1,5-a]pyrazin-3-yl)ethyl)-5-chloro-6-fluoro-2-isopropoxyphenyl)((S)-3-hydroxypyrrolidin-1-yl)methanone], the IC50 is greater than 50000 nM at PI3K (p110α/p85α), 17000 nM at PI3K (p110γ) and 2.9 nM at PI3K (p110δ/p85α). For the same compound, the pIC50 at PI3K (p110β/p85α) is less than 4.30.

For `Cc1nc(C(C)c2cc(Cl)c(F)c(C(=O)N3CCC(O)CC3)c2OC(C)C)n2ccnc(N)c12` (centres unmarked) [Compound 7, (3-(1-(8-amino-1-methylimidazo[1,5-a]pyrazin-3-yl)ethyl)-5-chloro-6-fluoro-2-isopropoxyphenyl)(4-hydroxypiperidin-1-yl)methanone], the figures for the IC50 at PI3K (p110α/p85α), on PI3K (p110γ) and at PI3K (p110δ/p85α) were greater than 50000 nM, 17000 nM and 6 nM, respectively. Also, the pIC50 on PI3K (p110β/p85α) is less than 4.30.

On to `COCCNC(=O)c1c(F)c(Cl)cc(C(C)c2nc(C)c3c(N)nccn23)c1OC(C)C` (centres unmarked) [Compound 8, 3-(1-(8-amino-1-methylimidazo[1,5-a]pyrazin-3-yl)ethyl)-5-chloro-6-fluoro-2-isopropoxy-N-(2-methoxyethyl)benzamide], for which the IC50 at PI3K (p110α/p85α) worked out at 49000 nM; on PI3K (p110γ), 6800 nM; on PI3K (p110δ/p85α), 2.3 nM. Also, on PI3K (p110β/p85α), the pIC50 is 4.80.

`Cc1nc(C(C)c2cc(Cl)c(F)c(C(=O)NC[C@@H](C)O)c2OC(C)C)n2ccnc(N)c12` (stereo partly drawn) [Compound 9, 3-(1-(8-amino-1-methylimidazo[1,5-a]pyrazin-3-yl)ethyl)-5-chloro-6-fluoro-N-((R)-2-hydroxypropyl)-2-isopropoxybenzamide]: the IC50 stood at 43000 nM at PI3K (p110α/p85α), 9200 nM at PI3K (p110γ) and 2.9 nM at PI3K (p110δ/p85α). In addition, the negative logarithm of the IC50 (pIC50) at PI3K (p110β/p85α) is 4.74.

Consider `Cc1nc(C(C)c2cc(Cl)c(F)c(C(=O)NCC3(O)CC3)c2OC(C)C)n2ccnc(N)c12` (centres unmarked) [Compound 10, 3-(1-(8-amino-1-methylimidazo[1,5-a]pyrazin-3-yl)ethyl)-5-chloro-6-fluoro-N-((1-hydroxycyclopropyl)methyl)-2-isopropoxybenzamide], for which the figures for the IC50 at PI3K (p110α/p85α), at PI3K (p110γ) and on PI3K (p110δ/p85α) were 34000 nM, 9000 nM and 3 nM, respectively. Besides, the pIC50 at PI3K (p110β/p85α) was 4.66.

In the case of `Cc1nc(C(C)c2cc(Cl)c(F)c(C(=O)NC3CC3)c2OC(C)C)n2ccnc(N)c12` (centres unmarked) [Compound 11, 3-(1-(8-amino-1-methylimidazo[1,5-a]pyrazin-3-yl)ethyl)-5-chloro-N-cyclopropyl-6-fluoro-2-isopropoxybenzamide], the values for the IC50 on PI3K (p110α/p85α), at PI3K (p110γ) and on PI3K (p110δ/p85α) were 31000 nM, 7300 nM and 2 nM, respectively. Also, at PI3K (p110β/p85α), the pIC50 was 5.21.

On to `Cc1nc(C(C)c2cc(Cl)c(F)c(C(=O)Nc3ccccc3)c2OC(C)C)n2ccnc(N)c12` (centres unmarked) [Compound 12, 3-(1-(8-amino-1-methylimidazo[1,5-a]pyrazin-3-yl)ethyl)-5-chloro-6-fluoro-2-isopropoxy-N-phenylbenzamide], for which the IC50 at PI3K (p110α/p85α) is greater than 50000 nM; on PI3K (p110γ) it was 14000 nM; on PI3K (p110δ/p85α), 3.7 nM. Further, the pIC50 at PI3K (p110β/p85α) was less than 4.30.

`CCOCC1(NC(=O)c2c(F)c(Cl)cc([C@H](C)c3nc(C)c4c(N)nccn34)c2OC(C)C)CC1` [Compound 15, (S)-3-(1-(8-amino-1-methylimidazo[1,5-a]pyrazin-3-yl)ethyl)-5-chloro-N-(1-(ethoxymethyl)cyclopropyl)-6-fluoro-2-isopropoxybenzamide]: the figures for the IC50 at PI3K (p110α/p85α), at PI3K (p110γ) and at PI3K (p110δ/p85α) were 36000 nM, 6700 nM and 1.8 nM, respectively. Besides, at PI3K (p110β/p85α), the pIC50 was less than 4.30.

For `Cc1nc([C@@H](C)c2cc(Cl)c(F)c(C(=O)NCCN(C)C)c2OC(C)C)n2ccnc(N)c12` [Compound 16, (S)-3-(1-(8-amino-1-methylimidazol[1,5-a]pyrazin-3-yl)ethyl)-5-chloro-N-(2-(dimethylamino)ethyl)-6-fluoro-2-isopropoxybenzamide], the IC50 at PI3K (p110α/p85α) was found to be 20000 nM; on PI3K (p110γ), 11000 nM; on PI3K (p110δ/p85α) it was 4 nM. The pIC50 on PI3K (p110β/p85α) was 4.77.

As for `COC[C@@H]1CCCN1C(=O)c1c(F)c(Cl)cc([C@H](C)c2nc(C)c3c(N)nccn23)c1OC(C)C` [Compound 17, (3-((S)-1-(8-amino-1-methylimidazo[1,5-a]pyrazin-3-yl)ethyl)-5-chloro-6-fluoro-2-isopropoxyphenyl)((S)-2-(methoxymethyl)pyrrolidin-1-yl)methanone], the results for the IC50 on PI3K (p110α/p85α), on PI3K (p110γ) and at PI3K (p110δ/p85α) were 77000 nM, 14000 nM and 3.8 nM, respectively. Further, at PI3K (p110β/p85α), the pIC50 was 4.14.

`Cc1nc([C@@H](C)c2cc(Cl)c(F)c(C(=O)Nc3ccc(F)cc3)c2OC(C)C)n2ccnc(N)c12` [Compound 18, (S)-3-(1-(8-amino-1-methylimidazo[1,5-a]pyrazin-3-yl)ethyl)-5-chloro-6-fluoro-N-(4-fluorophenyl)-2-isopropoxybenzamide]: the IC50 on PI3K (p110α/p85α) was 19000 nM; at PI3K (p110γ), 6500 nM; on PI3K (p110δ/p85α), 2.4 nM. Further, the pIC50 at PI3K (p110β/p85α) is 4.92.

As to `COC1CCN(C(=O)c2c(F)c(Cl)cc([C@H](C)c3nc(C)c4c(N)nccn34)c2OC(C)C)CC1` [Compound 19, (S)-(3-(1-(8-amino-1-methylimidazo[1,5-a]pyrazin-3-yl)ethyl)-5-chloro-6-fluoro-2-isopropoxyphenyl)(4-methoxypiperidin-1-yl)methanone], the IC50 came to 33000 nM on PI3K (p110α/p85α), 10000 nM on PI3K (p110γ) and 2 nM on PI3K (p110δ/p85α). On PI3K (p110β/p85α), the pIC50 is 4.22.

In the case of `Cc1nc([C@@H](C)c2cc(Cl)c(F)c(C(=O)N[C@@H](C)c3ccccc3)c2OC(C)C)n2ccnc(N)c12` [Compound 21, 3-((S)-1-(8-amino-1-methylimidazo[1,5-a]pyrazin-3-yl)ethyl)-5-chloro-6-fluoro-2-isopropoxy-N-((S)-1-phenylethyl)benzamide], the results for the IC50 at PI3K (p110α/p85α), at PI3K (p110γ) and at PI3K (p110δ/p85α) were 33000 nM, 3900 nM and 1.4 nM, respectively. Besides, at PI3K (p110β/p85α), the pIC50 is 4.55.

For the compound `Cc1nc([C@@H](C)c2cc(Cl)c(F)c(C(=O)NC[C@@H]3CCCO3)c2OC(C)C)n2ccnc(N)c12` [Compound 24, 3-((S)-1-(8-amino-1-methylimidazo[1,5-a]pyrazin-3-yl)ethyl)-5-chloro-6-fluoro-2-isopropoxy-N-(((S)-tetrahydrofuran-2-yl)methyl)benzamide], the IC50 on PI3K (p110α/p85α) worked out at 36000 nM; on PI3K (p110γ), 5800 nM; on PI3K (p110δ/p85α), 1.6 nM. In addition, the pIC50 on PI3K (p110β/p85α) was 4.80.

For the compound `Cc1nc([C@@H](C)c2cc(Cl)c(F)c(C(=O)N[C@H]3CCC[C@H]3O)c2OC(C)C)n2ccnc(N)c12` [Compound 25, 3-((S)-1-(8-amino-1-methylimidazo[1,5-a]pyrazin-3-yl)ethyl)-5-chloro-6-fluoro-N-((1S,2R)-2-hydroxycyclopentyl)-2-isopropoxybenzamide], the IC50 at PI3K (p110α/p85α) was 24000 nM; on PI3K (p110γ) it was 6000 nM; at PI3K (p110δ/p85α) it was 1.9 nM. In addition, on PI3K (p110β/p85α), the pIC50 is 5.06.

As for `Cc1nc([C@@H](C)c2cc(Cl)c(F)c(C(=O)NCCC3CCOCC3)c2OC(C)C)n2ccnc(N)c12` [Compound 26, (S)-3-(1-(8-amino-1-methylimidazol[1,5-a]pyrazin-3-yl)ethyl)-5-chloro-6-fluoro-2-isopropoxy-N-(2-(tetrahydro-2H-pyran-4-yl)ethyl)benzamide], the figures for the IC50 on PI3K (p110α/p85α), at PI3K (p110γ) and at PI3K (p110δ/p85α) were 24000 nM, 6500 nM and 0.86 nM, respectively. Besides, at PI3K (p110β/p85α), the pIC50 was 4.77.

Consider `CNC(=O)c1c(F)c(Cl)cc([C@H](C)c2nc(C)c3c(N)nccn23)c1OC(C)C` [Compound 27, (S)-3-(1-(8-amino-1-methylimidazo[1,5-a]pyrazin-3-yl)ethyl)-5-chloro-6-fluoro-2-isopropoxy-N-methylbenzamide], for which the figures for the IC50 at PI3K (p110α/p85α), at PI3K (p110γ) and at PI3K (p110δ/p85α) were 32000 nM, 3900 nM and 0.93 nM, respectively. Besides, the pIC50 at PI3K (p110β/p85α) is 5.52.

As for `CCNC(=O)c1c(F)c(Cl)cc([C@H](C)c2nc(C)c3c(N)nccn23)c1OC(C)C` [Compound 28, (S)-3-(1-(8-amino-1-methylimidazo[1,5-a]pyrazin-3-yl)ethyl)-5-chloro-6-fluoro-2-isopropoxy-N-ethyl-benzamide], the IC50 at PI3K (p110α/p85α) amounted to 24000 nM; at PI3K (p110γ) it was 4800 nM; at PI3K (p110δ/p85α), 1.2 nM. Besides, on PI3K (p110β/p85α), the pIC50 is 5.17.
